Entries after “also recorded” stand apart in the source; their conditions may differ. No end group written: not given here.
Legend:
RIN38-VIP1-cells = assay: Cell imaging by fluorescence microscopy, RIN38-VIP1 cells; assay type: cell-based, rat; conditions: 10 μM
Method: (§1) The binding and imaging of the compounds according to the invention were studied in vitro in human tumor cells, and the receptors for vaso-active intestinal peptide and/or somatostatin and/or neurotensin were expressed. To this end, 5×10^5 tumor cells were incubated in 1.5 ml of medium, which contained the test substance. Different concentrations of the substances (10 nM-10 μM) were used, and the incubation period varied (1 minute-24 hours). After the incubation, the cells were set, and microscopic preparations were produced. The evaluation was carried out on a Zeiss Axiovert 135-fluorescence microscope, which was equipped with a Cy7-(Exciter HQ 710/70 nm, emitter 810/90 nm, beam splitter 750 nm LP), Cy5-(exciter 575-625 nm, emitter 660-710 nm BP, beam splitter 645 nm) and Cy3-filter set (exciter 546/12 nm, emitter 590 nm LP, beam splitter 580 nm). From all preparations, white light and fluorescence images were recorded with a CCD-camera (Visitron RTE/CCD-576) and digitally stored.

HT29-tumor = assay: In-vivo fluorescence imaging in tumor-carrying nude mice, HT29 tumor; conditions: 0.1 μmol/kg intravenously, one hour after administration
Source text: The imaging properties of the compounds according to the invention were studied in vivo after injection into tumor-carrying nude mice. […] The fluorescence of the substances was excited by irradiation of animals with near-infrared light of wavelength 640 nm (indodicarbocyanines) or 740 nm (indotricarbocyanines), which was produced with an Nd:YAG laser. The fluorescence radiation was detected at a wavelength of >700 nm or >800 nm by an intensified CCD-camera, and the fluorescence images were stored digitally.

HT29 cells = assay: Cell imaging by fluorescence microscopy, HT29 cells; assay type: cell-based, human; conditions: 10 μM, 30 minutes of incubation, Cy7-filter set
Method: as §1

## (ξ-Amino-indotricarbocyanine)-Lys^25-VIP (14-25)-conjugate (RKQMAVKKYLNK(indotricarbocyanine)) [conjugate 24]
RIN38-VIP1-cells; Cy7-filter set
  fluorescence image of the cells (pattern, correlation with white light image): homogeneous, intracellular near-nucleus fluorescence
HT29-tumor; HT29 tumor in right rear flank
  increase in fluorescence intensity in the tumor relative to the contralateral flank: ~1.5 fold
HT29-tumor; HT29 tumor mouse
  fluorescence outside the tumor (remainder of the body, kidneys): increased fluorescence signal in the kidneys

## Indocarbocyanine-VIP (1-28)-conjugate (HSDAVFTDNYTRLRKQMAVKKYLNSILN; ends and bridges not checked; also: indocarbocyanine conjugate, position not given here) [conjugate 14]
RIN38-VIP1-cells; Cy3-filter set
  fluorescence image of the cells (pattern): intracellular fluorescence areas with a vesicular pattern in the membrane area of the cell

## Indotricarbocyanine-D-VIP (14-24)-conjugate (RKQMAVKKYLN; not fully specified; also: indotricarbocyanine dye conjugate, attachment site not given here) [conjugate 25]
HT29 cells
  fluorescence image of the cells (pattern, correlation with white light image): Fluorescence dispersed homogeneously over the cells, good correlation with the white light image

## Indotricarbocyanine-VIP (1-28)-conjugate (HSDAVFTDNYTRLRKQMAVKKYLNSILN; ends and bridges not checked; also: indotricarbocyanine conjugate, position not given here) [conjugate 16]
HT29 cells
  fluorescence image of the cells (pattern, correlation with white light image): largely homogeneous fluorescence dispersed over the cells; also recorded: areas of increased signals were visible, which can be associated with vesicular compartments
